Columns and labels:
[1] = test system: Mus musculus; experiment: Dose required for 50% reduction of spontaneous locomotory activity in mice when administered orally; format: functional; conditions: po
[2] = Dose required for 50% lethality after intraperitoneal administration in mice; format: ADME, organism-based; conditions: mouse, in vivo, ip
[3] = test system: Rattus norvegicus; experiment: Dose required for 50% reduction of plasma cholesterol in rat when administered orally.(100 mg/kg is maximal dose administered); format: functional; conditions: po
[4] = test system: Rattus norvegicus; experiment: Dose required for 50% reduction of plasma cholesterol in rat when administered orally. (100 mg/kg is maximal dose administered); format: functional; conditions: po
[5] = test system: Rattus norvegicus; experiment: Dose required for 50% reduction of plasma cholesterol in rat when administered orally.; format: functional; conditions: po
[6] = test system: Mus musculus; experiment: Dose required for 50% reduction of spontaneous locomotory activity in mice when administered orally (120 mg/kg is maximal dose administered); format: functional; conditions: po
[7] = test system: Rattus norvegicus; experiment: Percent increase in liver weight in plasma was evaluated 10 mg/kg in rat; format: functional
[8] = test system: Rattus norvegicus; experiment: Percent reduction of phospholipid level in plasma was evaluated 10 mg/kg in rat; format: functional
[9] = test system: Rattus norvegicus; experiment: Percent reduction of phospholipid level in plasma was evaluated 100 mg/kg in rat; format: functional
[10] = test system: Rattus norvegicus; experiment: Percent reduction of phospholipid level in plasma was evaluated 30 mg/kg in rat; format: functional
[11] = test system: Rattus norvegicus; experiment: Percent reduction of total cholesterol level in plasma was evaluated at dose 10 mg/kg in rat; format: functional
[12] = test system: Rattus norvegicus; experiment: Percent reduction of triglyceride level in plasma was evaluated 30 mg/kg in rat; format: functional
[13] = test system: Rattus norvegicus; experiment: Percent reduction of total cholesterol level in plasma was evaluated at dose 100 mg/kg in rat; format: functional
[14] = test system: Rattus norvegicus; experiment: Percent reduction of total cholesterol level in plasma was evaluated at dose 3 mg/kg in rat; format: functional
[15] = test system: Rattus norvegicus; experiment: Percent reduction of total cholesterol level in plasma was evaluated at dose 30 mg/kg in rat; format: functional
[16] = test system: Rattus norvegicus; experiment: Percent reduction of triglyceride level in plasma was evaluated 10 mg/kg in rat; format: functional
[17] = test system: Rattus norvegicus; experiment: Percent increase in liver weight in plasma was evaluated 100 mg/kg in rat; format: functional
[18] = test system: Rattus norvegicus; experiment: Percent increase in liver weight in plasma was evaluated 30 mg/kg in rat; format: functional
[19] = test system: Rattus norvegicus; experiment: Percent reduction of triglyceride level in plasma was evaluated 100 mg/kg in rat; format: functional
[20] = test system: Rattus norvegicus; experiment: Dose required for 50% reduction of plasma cholesterol in rat when administered orally (45 mg/kg maximal administered dose); format: functional; conditions: po
[21] = test system: Rattus norvegicus; experiment: Dose required for 50% reduction of plasma cholesterol in rat when administered orally (200 mg/kg maximal administered dose); format: functional; conditions: po
[22] = test system: Mus musculus; experiment: Dose required for 50% reduction of spontaneous locomotory activity in mice when administered orally (200 mg/kg is maximal dose administered); format: functional; conditions: po
[23] = test system: Rattus norvegicus; experiment: Percent increase in liver weight in plasma was evaluated 12.5 mg/kg in rat; format: functional
[24] = test system: Rattus norvegicus; experiment: Percent increase in liver weight in plasma was evaluated 25 mg/kg in rat; format: functional
[25] = test system: Rattus norvegicus; experiment: Percent increase in liver weight in plasma was evaluated 50 mg/kg in rat; format: functional
[26] = test system: Rattus norvegicus; experiment: Percent reduction of phospholipid level in plasma was evaluated 12.5 mg/kg in rat; format: functional
[27] = test system: Rattus norvegicus; experiment: Percent reduction of phospholipid level in plasma was evaluated 25 mg/kg in rat; format: functional
[28] = test system: Rattus norvegicus; experiment: Percent reduction of triglyceride level in plasma was evaluated 12.5 mg/kg in rat; format: functional
[29] = test system: Rattus norvegicus; experiment: Percent reduction of triglyceride level in plasma was evaluated 25 mg/kg in rat; format: functional
[30] = test system: Rattus norvegicus; experiment: Percent reduction of triglyceride level in plasma was evaluated 300 mg/kg; in rat; format: functional
[31] = test system: Rattus norvegicus; experiment: Percent reduction of triglyceride level in plasma was evaluated 50 mg/kg in rat; format: functional
[32] = test system: Rattus norvegicus; experiment: Percent reduction of total cholesterol level in plasma was evaluated at dose 12.5 mg/kg in rat; format: functional
[33] = test system: Rattus norvegicus; experiment: Percent reduction of total cholesterol level in plasma was evaluated at dose 25 mg/kg in rat; format: functional
[34] = test system: Rattus norvegicus; experiment: Percent reduction of total cholesterol level in plasma was evaluated at dose 300 mg/kg in rat; format: functional
[35] = test system: Rattus norvegicus; experiment: Percent reduction of total cholesterol level in plasma was evaluated at dose 50 mg/kg in rat; format: functional
[36] = test system: Rattus norvegicus; experiment: Percent increase in liver weight in plasma was evaluated 300 mg/kg in rat; format: functional
[37] = test system: Mus musculus; experiment: Dose required for 50% reduction of spontaneous locomotory activity in mice when administered orally (100 mg/kg is maximal dose administered); format: functional; conditions: po
[38] = test system: Rattus norvegicus; experiment: Percent reduction of phospholipid level in plasma was evaluated 300 mg/kg in rat; format: functional
[39] = test system: Rattus norvegicus; experiment: Percent reduction of total cholesterol level in plasma was evaluated 100 mg/kg in rat; format: functional
[40] = test system: Rattus norvegicus; experiment: Percent reduction of total cholesterol level in plasma was evaluated 300 mg/kg in rat; format: functional
[41] = test system: Rattus norvegicus; experiment: Percent reduction of triglyceride level in plasma was evaluated 300 mg/kg in rat; format: functional
[42] = test system: Mus musculus; experiment: Dose required for 50% reduction of spontaneous locomotory activity in mice when administered orally (200 mg/kg maximal administered dose); format: functional; conditions: po
[43] = test system: Rattus norvegicus; experiment: Dose required for 50% reduction of plasma cholesterol in rat when administered orally (100 mg/kg maximal administered dose); format: functional; conditions: po
[44] = test system: Rattus norvegicus; experiment: Dose required for 50% reduction of plasma cholesterol in rat when administered orally; format: functional; conditions: po

CSc1ccc(-c2oc(=O)oc2CCN2CCN(c3ccccc3)CC2)cc1.Cl
ED50 [1]: 200 mg/kg | LD50 [2]: > 1000 mg/kg | ED50 [3]: 15 mg/kg

COc1ccccc1N1CCN(CCc2oc(=O)oc2-c2ccc(F)cc2)CC1.Cl
ED50 [1]: 47 mg/kg | LD50 [2]: 350 mg/kg | ED50 [4]: 25 mg/kg

Cc1ccc(-c2oc(=O)oc2CCN2CCN(c3ccccc3)CC2)cc1.Cl
LD50 [2]: > 1000 mg/kg | ED50 [5]: 80 mg/kg

CC(=O)OC(CCN1CCN(c2ccccc2)CC1)C(=O)c1ccc(F)cc1.O=C(O)/C=C/C(=O)O (stereo unspecified)
ED50 [1]: 56 mg/kg | LD50 [2]: 575 mg/kg | ED50 [5]: 100 mg/kg

Cl.O=c1oc(CCN2CCN(c3ccccc3)CC2)c(-c2ccc(Cl)cc2)o1
ED50 [6]: 31 mg/kg | LD50 [2]: 865 mg/kg | ED50 [5]: 11.3 mg/kg | Increase [7]: 3% | Reduction [8]: 14% | Reduction [9]: 83% | Reduction [10]: 58% | Reduction [11]: 48% | Reduction [12]: 22% | Reduction [13]: 100% | Reduction [14]: 16% | Reduction [15]: 72% | Reduction [16]: 15% | Increase [17]: 28% | Increase [18]: 13% | Reduction [19]: 63%

CN(C)C(=O)OC(CCN1CCN(c2ccccc2)CC1)C(=O)c1ccc(F)cc1.Cl (stereo unspecified)
ED50 [1]: 30 mg/kg | LD50 [2]: 150 mg/kg | ED50 [20]: 35 mg/kg

Cl.O=c1oc(CCN2CCN(c3ccc(Cl)cc3)CC2)c(-c2ccc(Cl)cc2)o1
LD50 [2]: > 1000 mg/kg | ED50 [3]: 8 mg/kg

Cl.O=C(c1ccc(F)cc1)C(O)CCN1CCN(c2ccccc2)CC1 (stereo unspecified)
ED50 [1]: 35 mg/kg | LD50 [2]: > 1000 mg/kg | ED50 [5]: 50 mg/kg

CC(C)(C)NC(=O)OC(CCN1CCN(c2ccccc2)CC1)C(=O)c1ccc(F)cc1 (stereo unspecified)
ED50 [1]: 200 mg/kg | LD50 [2]: > 1000 mg/kg | ED50 [21]: 18 mg/kg

Cl.O=c1oc(CCN2CCN(c3ccccc3)CC2)c(-c2ccc(-c3ccccc3)cc2)o1
ED50 [22]: 29 mg/kg | LD50 [2]: > 1000 mg/kg

Cl.O=c1oc(CCN2CCN(c3cccc(C(F)(F)F)c3)CC2)c(-c2ccc(F)cc2)o1
ED50 [1]: 200 mg/kg | LD50 [2]: 1000 mg/kg

Cl.O=c1oc(CCN2CCN(c3ccccc3)CC2)c(-c2ccc(F)cc2)o1
ED50 [1]: 100 mg/kg | LD50 [2]: 936 mg/kg | ED50 [5]: 18.6 mg/kg | Increase [23]: 9% | Increase [24]: 12% | Increase [25]: 12% | Reduction [9]: 75% | Reduction [26]: 19% | Reduction [27]: 52% | Reduction [28]: 12% | Reduction [29]: 20% | Reduction [30]: 82% | Reduction [31]: 36% | Reduction [13]: 85% | Reduction [32]: 39% | Reduction [33]: 57% | Reduction [34]: 97% | Reduction [35]: 76% | Increase [17]: 33% | Increase [36]: 43% | Reduction [19]: 27%

Cl.O=c1oc(CCN2CCN(c3cc(Cl)cc(Cl)c3)CC2)c(-c2ccc(F)cc2)o1
ED50 [37]: 16 mg/kg | LD50 [2]: > 1000 mg/kg | ED50 [3]: 5 mg/kg

Cl.O=c1oc(CCN2CCN(c3ccccc3)CC2)c(-c2ccccc2)o1
ED50 [1]: 50 mg/kg | LD50 [2]: 500 mg/kg | ED50 [5]: 50 mg/kg

CCOC(=O)C(C)(C)Oc1ccc(Cl)cc1 [CLOFIBRATE]
Reduction [9]: 23% | Reduction [38]: -11% | Reduction [39]: 46% | Reduction [40]: 43% | Reduction [12]: 20% | Reduction [15]: 31% | Reduction [17]: 21% | Increase [18]: 3% | Increase [36]: 51% | Reduction [19]: 7% | Reduction [41]: -39%

COc1cc(C(=O)OC(CCN2CCN(c3ccccc3)CC2)C(=O)c2ccc(F)cc2)cc(OC)c1OC.Cl (stereo unspecified)
ED50 [42]: 13 mg/kg | LD50 [2]: > 1000 mg/kg | ED50 [43]: 21 mg/kg

COc1ccc(-c2oc(=O)oc2CCN2CCN(c3ccccc3)CC2)cc1.Cl
ED50 [1]: 75 mg/kg | LD50 [2]: > 1000 mg/kg | ED50 [3]: 25 mg/kg

Cl.O=c1oc(CCN2CCN(c3ccc(Cl)c(Cl)c3)CC2)c(-c2ccc(F)cc2)o1
ED50 [1]: 120 mg/kg | ED50 [4]: 20 mg/kg

Cl.O=c1oc(CCN2CCN(c3cccc(Cl)c3)CC2)c(-c2ccc(F)cc2)o1
ED50 [1]: 46 mg/kg | LD50 [2]: 500 mg/kg

Cl.O=c1oc(CCCN2CCN(c3ccccc3)CC2)c(-c2ccc(F)cc2)o1
ED50 [44]: 50 mg/kg
